# Data published in ChEMBL document CHEMBL5614385, “A peptide-salinomycin conjugate with a bystander effect reduces the stemness characteristics of ovarian cancer cells and enhances drug sensitivity” (Eur J Med Chem, 2024).
# Activity calls are given as the source filed them. The calls are words filed in the database; no cut-off is given here. Non-standard residues stand in square brackets, D forms with d. Residues, ends and D or L forms follow the SMILES beside them. *: point of attachment. X1 = CC[C@@H](C(=O)O)C1CC[C@H](C)C([C@@H](C)[C@H](O)[C@H](C)C(=O)[C@H](CC)C2O[C@]3(C=C[C@@H](NC(=O)CCS*)[C@]4(CC[C@@](C)(C5CC[C@](O)(CC)[C@H](C)O5)O4)O3)[C@H](C)C[C@@H]2C)O1; Sar = CNCC(=O)O
# What was measured:
# SK-OV-3 [1] = experiment: Inhibition of AKT phosphorylation in human SK-OV-3 cells at 5 uM incubated for 24 hrs by Western blot analysis; type: cell-based
# [2] = target: Vascular endothelial growth factor receptor 2 (Homo sapiens) (UniProt P35968); experiment: Inhibition of VEGFR2 phosphorylation in human SK-OV-3 cells at 5 uM incubated for 24 hrs by Western blot analysis; type: cell-based
# Sequence of Vascular endothelial growth factor receptor 2 (Homo sapiens) (P35968 whole entry): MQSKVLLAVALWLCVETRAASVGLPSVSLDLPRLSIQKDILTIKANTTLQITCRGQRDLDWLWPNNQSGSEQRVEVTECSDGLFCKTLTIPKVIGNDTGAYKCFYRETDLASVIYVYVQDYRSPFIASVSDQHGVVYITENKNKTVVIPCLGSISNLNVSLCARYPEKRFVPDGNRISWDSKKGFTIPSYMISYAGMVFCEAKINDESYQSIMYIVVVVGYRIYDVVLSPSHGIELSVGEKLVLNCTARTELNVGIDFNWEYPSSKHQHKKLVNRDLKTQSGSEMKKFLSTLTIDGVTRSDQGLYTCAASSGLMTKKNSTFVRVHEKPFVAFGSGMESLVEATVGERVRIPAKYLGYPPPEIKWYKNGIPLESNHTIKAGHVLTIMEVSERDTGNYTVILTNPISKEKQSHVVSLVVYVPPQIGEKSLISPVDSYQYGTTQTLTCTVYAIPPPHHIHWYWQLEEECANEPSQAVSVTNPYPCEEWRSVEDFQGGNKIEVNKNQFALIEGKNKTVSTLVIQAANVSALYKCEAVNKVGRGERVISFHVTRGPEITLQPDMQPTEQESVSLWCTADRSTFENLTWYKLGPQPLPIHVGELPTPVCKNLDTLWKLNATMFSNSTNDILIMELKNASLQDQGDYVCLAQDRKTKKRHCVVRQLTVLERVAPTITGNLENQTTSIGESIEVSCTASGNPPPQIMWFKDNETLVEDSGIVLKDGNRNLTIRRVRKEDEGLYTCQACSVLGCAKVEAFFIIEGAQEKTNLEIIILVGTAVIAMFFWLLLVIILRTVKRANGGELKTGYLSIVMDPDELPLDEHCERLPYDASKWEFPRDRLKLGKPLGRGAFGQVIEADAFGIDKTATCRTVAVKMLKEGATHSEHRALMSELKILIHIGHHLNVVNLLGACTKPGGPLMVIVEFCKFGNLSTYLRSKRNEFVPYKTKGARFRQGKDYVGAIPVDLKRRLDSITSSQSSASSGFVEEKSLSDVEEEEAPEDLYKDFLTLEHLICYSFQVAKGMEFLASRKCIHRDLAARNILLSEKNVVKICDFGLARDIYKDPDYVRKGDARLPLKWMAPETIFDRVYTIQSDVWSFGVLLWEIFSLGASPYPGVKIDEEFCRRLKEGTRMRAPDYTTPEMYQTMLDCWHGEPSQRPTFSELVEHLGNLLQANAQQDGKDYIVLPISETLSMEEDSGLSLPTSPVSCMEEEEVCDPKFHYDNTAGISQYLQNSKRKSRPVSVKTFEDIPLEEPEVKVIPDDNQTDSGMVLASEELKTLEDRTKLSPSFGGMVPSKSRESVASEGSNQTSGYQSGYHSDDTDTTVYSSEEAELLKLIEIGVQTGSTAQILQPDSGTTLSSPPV
# A2780 [3] = experiment: Antitumor activity against CD44 negative human A2780 cells co-cultured with CD44 positive human SK-OV-3 cells in DMEM medium at 6:4 ratio assessed as induction of cell death incubated for 72 hrs by enzymatic immunoassay; type: functional, cell-based; conditions: dose 2.5-20 µM
# [4] = target: CD44 antigen (Homo sapiens) (UniProt P16070); experiment: Binding affinity to CD44 positive human SK-OV-3 cells at 5 uM incubated for 1 hrs by flow cytometric analysis; type: cell-based
# Sequence of CD44 antigen (Homo sapiens) (P16070 whole entry): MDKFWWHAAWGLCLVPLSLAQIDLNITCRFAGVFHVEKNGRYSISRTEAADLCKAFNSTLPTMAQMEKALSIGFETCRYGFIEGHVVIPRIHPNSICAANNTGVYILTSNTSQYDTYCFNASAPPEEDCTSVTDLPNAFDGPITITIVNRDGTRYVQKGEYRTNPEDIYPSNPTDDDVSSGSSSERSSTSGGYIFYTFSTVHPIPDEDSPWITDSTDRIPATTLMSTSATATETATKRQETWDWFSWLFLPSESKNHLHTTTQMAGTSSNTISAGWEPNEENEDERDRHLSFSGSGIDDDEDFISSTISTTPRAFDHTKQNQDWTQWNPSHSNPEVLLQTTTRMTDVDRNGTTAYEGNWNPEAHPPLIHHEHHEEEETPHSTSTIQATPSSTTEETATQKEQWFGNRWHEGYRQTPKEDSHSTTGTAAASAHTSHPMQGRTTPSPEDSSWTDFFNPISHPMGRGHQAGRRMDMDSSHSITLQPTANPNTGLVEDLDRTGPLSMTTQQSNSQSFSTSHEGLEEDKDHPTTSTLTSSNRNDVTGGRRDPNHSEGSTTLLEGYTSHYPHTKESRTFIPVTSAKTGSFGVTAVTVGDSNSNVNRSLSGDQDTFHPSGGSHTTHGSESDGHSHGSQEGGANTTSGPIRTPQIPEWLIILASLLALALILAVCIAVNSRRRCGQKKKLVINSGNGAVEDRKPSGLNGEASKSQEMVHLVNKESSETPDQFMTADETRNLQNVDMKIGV
# SK-OV-3/CDDP [5] = experiment: Antiproliferative activity against human SK-OV-3/CDDP cells; type: functional, cell-based
# SK-OV-3 [6] = experiment: Antiproliferative activity against human SK-OV-3 cells; type: functional, cell-based
# A2780 [7] = experiment: Binding affinity to CD44 negative human A2780 cells at 5 uM incubated for 1 hrs by flow cytometric analysis; type: functional, cell-based
# SK-OV-3 [8] = experiment: Downregulation of CD133 expression in human SK-OV-3 tumor stem cells at 10 uM incubated for 36 hrs by flow cytometric analysis; type: functional, cell-based
# SK-OV-3 [9] = experiment: Cytotoxicity against CD44 positive human SK-OV-3 cells assessed as reduction in cell viability at 100 uM preincubated with 10 and 100 uM of 4S)-4-[[(2S)-1-[(2S)-1-[(2S)-2-[[(2S)-2-[[(2S)-1-[(2S)-2-acetamido-6-amino-hexanoyl]pyrrolidine-2-carbonyl]amino]-3-hydroxy-propanoyl]amino]-3-hydroxy-propanoyl]pyrrolidine-2-carbonyl]pyrrolidine-2-carbonyl]amino]-5-[[(1S)-1-[[2-[[2-[[2-[[2-[[2-[[2-[[2-[[2-[[2-[[2-[[(1S)-2-amino-1-methyl-2-oxo-ethyl]amino]-2-oxo-ethyl]-methyl-amino]-2-oxo-ethyl]-methyl-amino]-2-oxo-ethyl]-methyl-amino]-2-oxo-ethyl]-methyl-amino]-2-oxo-ethyl]-methyl-amino]-2-oxo-ethyl]-methyl-amino]-2-oxo-ethyl]-methyl-amino]-2-oxo-ethyl]-methyl-amino]-2-oxo-ethyl]-methyl-amino]-2-oxo-ethyl]-methyl-carbamoyl]-3-carboxy-propyl]amino]-5-oxo-pentanoic acid for 1 hrs followed by compound addition and measured after 24 hrs by CCK8 assay; type: functional, cell-based
# A2780 [10] = experiment: Antitumor activity against CD44 negative human A2780 cells expressing GFP co-cultured with CD44 positive human SK-OV-3 cells in DMEM medium at 4:6 ratio assessed as decrease in fluorescence intensity incubated for 72 hrs by enzymatic immunoassay; type: functional, cell-based; conditions: dose 2.5-20 µM
# SK-OV-3/CDDP [11] = experiment: Induction of ROS generation in human SK-OV-3/CDDP cells at 5 uM; type: functional, cell-based
# A2780 [12] = experiment: Antitumor activity against CD44 negative human A2780 cells expressing GFP co-cultured with CD44 positive human SK-OV-3 cells in DMEM medium at 6:4 ratio assessed as decrease in fluorescence intensity incubated for 72 hrs by enzymatic immunoassay; type: functional, cell-based; conditions: dose 2.5-20 µM
# SK-OV-3 [13] = experiment: Antitumor activity against CD44 positive human SK-OV-3 cells assessed as reduction in cell viability incubated for 72 hrs by CCK8 assay; type: functional, cell-based; conditions: SK-OV-3, 72 h
# A2780 [14] = experiment: Antitumor activity against CD44 negative human A2780 cells co-cultured with CD44 positive human SK-OV-3 cells in DMEM medium at 4:6 ratio assessed as induction of cell death incubated for 72 hrs by enzymatic immunoassay; type: functional, cell-based; conditions: dose 2.5-20 µM
# SK-OV-3/CDDP [15] = experiment: Sensitization of cisplatin-induced antiproliferative activity against human SK-OV-3/CDDP cells assessed as reduction in cell viability at 1 uM incubated for 72 hrs by CCK8 assay; type: functional, cell-based
# SK-OV-3 [16] = experiment: Antitumor activity against human SK-OV-3 cells xenografted in nude mouse assessed as reduction in oct-4 level administered intravenously every 2 days for 21 days by hematoxylin based immunohistochemistry analysis; type: functional, cell-based; conditions: route iv, time 21.0 day
# A2780 [17] = experiment: Antitumor activity against CD44 negative human A2780 cells expressing GFP co-cultured with CD44 positive human SK-OV-3 cells in DMEM medium at 5:5 ratio assessed as decrease in fluorescence intensity incubated for 72 hrs by enzymatic immunoassay; type: functional, cell-based; conditions: dose 2.5-20 µM
# SK-OV-3 [18] = experiment: Inhibition of tumor sphere formation in agarose-treated human SK-OV-3 cells assessed as fold decrease in number of formed spheres at 0.5 to 5 uM incubated for 9 days by imaging analysis; type: functional; conditions: dose 0.5-5 µM; time 9 day
# SK-OV-3/CDDP [19] = experiment: Reduction in intracellular GSH level in human SK-OV-3 cells at 5 uM incubated for 36 hrs; type: functional, cell-based
# [20] = Solubility of compound in water; type: physicochemical; conditions: buffer
# SK-OV-3 [21] = experiment: Inhibition of cell migration in human SK-OV-3 cells at 5 uM incubated for 24 hrs by microscope based wound healing assay; type: functional
# SK-OV-3 [22] = experiment: Effect on CD44 expression in CD44 positive human SK-OV-3 cells; type: functional, cell-based
# A2780 [23] = experiment: Antitumor activity against CD44 negative human A2780 cells assessed as reduction in cell viability incubated for 72 hrs by CCK8 assay; type: functional, cell-based; conditions: A2780, 72 h
# SK-OV-3 [24] = experiment: Antitumor activity against human SK-OV-3 cells xenografted in nude mouse assessed as reduction in Nanog level administered intravenously every 2 days for 21 days by hematoxylin based immunohistochemistry analysis; type: functional, cell-based; conditions: route iv, time 21.0 day
# SK-OV-3 [25] = experiment: Inhibition of cell invasion in human SK-OV-3 cells incubated for 24 hrs by crystal violet staining based transwell invasion assay; type: functional; conditions: dose 5.0 µM
# SK-OV-3 [26] = experiment: Antitumor activity against human SK-OV-3 cells xenografted in nude mouse assessed as tumor growth inhibition at 35 microg/kg, iv administered every 2 days for 21 days; type: functional, organism-based; conditions: dose 35.0 µg/kg, time 21.0 day
# SK-OV-3/CDDP [27] = experiment: Cytotoxicity against human SK-OV-3/CDDP cells assessed as inhibition of cell proliferation incubated for 72 hrs by CCK8 assay; type: functional, cell-based
# A2780 [28] = experiment: Antitumor activity against CD44 negative human A2780 cells co-cultured with CD44 positive human SK-OV-3 cells in DMEM medium at 5:5 ratio assessed as induction of cell death incubated for 72 hrs by enzymatic immunoassay; type: functional, cell-based; conditions: dose 2.5-20 µM
# A2780 [29] = experiment: Antitumor activity against CD44 negative human A2780 cells co-cultured with CD44 positive human SK-OV-3 cells in DMEM medium at varying ratio assessed as inhibition of cell growth at 20 uM incubated for 72 hrs by enzymatic immunoassay relative to control; type: functional
# A549 = experiment: Cytotoxicity against human A549 cells assessed as inhibition of cell growth incubated for 72 hrs by CCK8 assay; type: functional, cell-based; conditions: A549, 72 h
# ACHN = experiment: Cytotoxicity against human ACHN cells assessed as inhibition of cell growth incubated for 72 hrs by CCK8 assay; type: functional, cell-based
# HCCLM3 = experiment: Cytotoxicity against human HCCLM3 cells assessed as inhibition of cell growth incubated for 72 hrs by CCK8 assay; type: functional, cell-based; conditions: HCCLM3, 72 h
# MIA PaCa-2 = experiment: Cytotoxicity against human MIA PaCa-2 cells assessed as inhibition of cell growth incubated for 72 hrs by CCK8 assay; type: functional, cell-based; conditions: MIA PaCa-2, 72 h
# CAL-27 = experiment: Cytotoxicity against human CAL-27 cells assessed as inhibition of cell growth incubated for 72 hrs by CCK8 assay; type: functional, cell-based; conditions: CAL-27, 72 h
# MCF7 = experiment: Cytotoxicity against human MCF7 cells assessed as inhibition of cell growth incubated for 72 hrs by CCK8 assay; type: functional, cell-based; conditions: MCF7, 72 h
# MDA-MB-231 = experiment: Cytotoxicity against human MDA-MB-231 cells assessed as inhibition of cell growth incubated for 72 hrs by CCK8 assay; type: functional, cell-based; conditions: MDA-MB-231, 72 h
# A-431 = experiment: Cytotoxicity against human A-431 cells assessed as inhibition of cell growth incubated for 72 hrs by CCK8 assay; type: functional, cell-based; conditions: A-431, 72 h
# HeLa = experiment: Cytotoxicity against human HeLa cells assessed as inhibition of cell growth incubated for 72 hrs by CCK8 assay; type: functional, cell-based
# MKN-45 = experiment: Cytotoxicity against human MKN-45 cells assessed as inhibition of cell growth incubated for 72 hrs by CCK8 assay; type: functional, cell-based; conditions: MKN-45, 72 h
# SK-OV-3 [30] = experiment: Inhibition of cell invasion in human SK-OV-3 cells at 5 uM incubated for 24 hrs by crystal violet staining based transwell invasion assay; type: functional
# SK-OV-3 [31] = experiment: Inhibition of cell migration in human SK-OV-3 cells at 10 uM incubated for 24 hrs by microscope based wound healing assay; type: functional
# DU-145 = experiment: Cytotoxicity against human DU-145 cells assessed as inhibition of cell growth incubated for 72 hrs by CCK8 assay; type: functional, cell-based; conditions: DU-145, 72 h
smiles,measurement,setting,value
CC(=O)N[C@@H](CCCCN)C(=O)N1CCC[C@H]1C(=O)N[C@@H](CO)C(=O)N[C@@H](CO)C(=O)N1CCC[C@H]1C(=O)N1CCC[C@H]1C(=O)N[C@@H](CCC(=O)O)C(=O)N[C@@H](CCC(=O)O)C(=O)N(C)CC(=O)N(C)CC(=O)N(C)CC(=O)N(C)CC(=O)N(C)CC(=O)N(C)CC(=O)N(C)CC(=O)N(C)CC(=O)N(C)CC(=O)N(C)CC(=O)N[C@@H](C)C(N)=O (Ac-KPSSPPEE[Sar][Sar][Sar][Sar][Sar][Sar][Sar][Sar][Sar][Sar]A-NH2),inhibition,SK-OV-3 [1],Active
same,inhibition,[2],Active
CC[C@@H](C(=O)[O-])C1CC[C@H](C)C([C@@H](C)[C@H](O)[C@H](C)C(=O)[C@H](CC)C2O[C@]3(C=C[C@@H](NC(=O)CCSSC[C@H](NC(=O)CN(C)C(=O)CN(C)C(=O)CN(C)C(=O)CN(C)C(=O)CN(C)C(=O)CN(C)C(=O)CN(C)C(=O)CN(C)C(=O)CN(C)C(=O)CN(C)C(=O)[C@H](CCC(=O)O)NC(=O)[C@H](CCC(=O)O)NC(=O)[C@@H]4CCCN4C(=O)[C@@H]4CCCN4C(=O)[C@H](CO)NC(=O)[C@H](CO)NC(=O)[C@@H]4CCCN4C(=O)[C@H](CCCCN)NC(C)=O)C(N)=O)[C@]4(CC[C@@](C)(C5CC[C@](O)(CC)[C@H](C)O5)O4)O3)[C@H](C)C[C@@H]2C)O1.[Na+] (stereo partly drawn) (Ac-KPSSPPEE[Sar][Sar][Sar][Sar][Sar][Sar][Sar][Sar][Sar][Sar]C(X1)-NH2),Activity,A2780 [3],Dose-Dependent Effect
same,Activity,[4],Active
same,IC50,SK-OV-3/CDDP [5],18.7 µg/mL
same,IC50,SK-OV-3 [6],5.21 µg/mL
same,Activity,A2780 [7],inactive
same,Activity,SK-OV-3 [8],Active
same,Activity,SK-OV-3 [9],inactive
same,Activity,A2780 [10],Dose-Dependent Effect
same,Activity,SK-OV-3/CDDP [11],Active
same,Activity,A2780 [12],Dose-Dependent Effect
same,IC50,SK-OV-3 [13],5.45 µM
same,Activity,A2780 [14],Dose-Dependent Effect
same,Activity,SK-OV-3/CDDP [15],Active
same,Activity,SK-OV-3 [16],Active
same,Activity,A2780 [17],Dose-Dependent Effect
same,fold change (FC),SK-OV-3 [18],4.6
same,Activity,SK-OV-3/CDDP [19],Active
same,solubility,[20],Soluble
same,inhibition,SK-OV-3 [21],Active
same,Activity,SK-OV-3 [22],inactive
same,inhibition,SK-OV-3 [1],Active
same,IC50,A2780 [23],47.1 µM
same,Activity,SK-OV-3 [24],Active
same,inhibition,SK-OV-3 [25],Dose-Dependent Effect
same,Activity,SK-OV-3 [26],Active
same,IC50,SK-OV-3/CDDP [27],6.09 µM
same,inhibition,[2],Active
same,Activity,A2780 [28],Dose-Dependent Effect
same,inhibition at 20 µM,A2780 [29],> 80%
CC[C@@H](C(=O)[C@@H](C)[C@@H](O)[C@H](C)[C@@H]1O[C@@H]([C@@H](CC)C(=O)O)CC[C@@H]1C)[C@H]1O[C@]2(C=C[C@@H](O)[C@]3(CC[C@@](C)([C@H]4CC[C@](O)(CC)[C@H](C)O4)O3)O2)[C@H](C)C[C@@H]1C [SALINOMYCIN],Activity,SK-OV-3 [8],Active
same,IC50,A549,25.1 µM
same,IC50,ACHN,26 µM
same,IC50,HCCLM3,7.99 µM
same,IC50,SK-OV-3 [13],12.4 µM
same,IC50,MIA PaCa-2,5.03 µM
same,Activity,SK-OV-3/CDDP [15],Active
same,IC50,CAL-27,30.2 µM
same,inhibition,SK-OV-3 [21],inactive
same,IC50,MCF7,9.89 µM
same,Activity,SK-OV-3 [22],inactive
same,inhibition,SK-OV-3 [1],Active
same,IC50,A2780 [23],0.16 µM
same,IC50,MDA-MB-231,0.9 µM
same,IC50,A-431,5.27 µM
same,IC50,HeLa,25 µM
same,IC50,SK-OV-3/CDDP [27],10.3 µM
same,inhibition,[2],Active
same,IC50,MKN-45,6.49 µM
same,inhibition,SK-OV-3 [30],Active
same,inhibition,SK-OV-3 [31],Active
same,IC50,DU-145,47.1 µM
